From ChEMBL document CHEMBL3227999, “Synthesis and biological properties of N2-substituted spin-labeled analogues of actinomycin D” (J Med Chem, 1979)
Activity calls are given as the source filed them. No cut-off for these calls is given here.

How the values were obtained:
L1210 [1] = experiment: Cytotoxicity against mouse L1210 cells at 10 ug/ml after 48 hrs; format: functional; settings: L1210, 48 h
[2] = biological target: T1, Bacterial DNA-directed RNA polymerase (Bacteria) (UniProt P0A8V2+P0A7Z4+P0A8T7+P0A800); experiment: Inhibition of Escherichia coli DNA-dependent RNA polymerase at 2.5 ug/ml using calf thymus DNA as primer; format: protein-complex assay
P388 [3] = experiment: Antitumor activity against mouse P388 cells allografted in CDF1 mouse assessed as survival at 2.7 mg/kg, ip administered on day 1, 5 and 9; format: functional; settings: route intraperitoneal
L1210 [4] = experiment: Cytotoxicity against mouse L1210 cells at 0.01 ug/ml after 48 hrs; format: functional; settings: L1210, 48 h
P388 [5] = experiment: Antitumor activity against mouse P388 cells allografted in CDF1 mouse assessed as survival at 6 mg/kg, ip administered on day 1, 5 and 9; format: functional; settings: route intraperitoneal
L1210 [6] = experiment: Cytotoxicity against mouse L1210 cells at 0.1 ug/ml after 48 hrs; format: functional; settings: L1210, 48 h
[7] = biological target: T1, Bacterial DNA-directed RNA polymerase (Bacteria); experiment: Inhibition of Escherichia coli DNA-dependent RNA polymerase at 10 ug/ml using Micrococcus luteus DNA as primer; format: protein-complex assay
[8] = biological target: T1, Bacterial DNA-directed RNA polymerase (Bacteria); experiment: Inhibition of Escherichia coli DNA-dependent RNA polymerase at 10 ug/ml using calf thymus DNA as primer; format: protein-complex assay
[9] = biological target: T1, Bacterial DNA-directed RNA polymerase (Bacteria); experiment: Inhibition of Escherichia coli DNA-dependent RNA polymerase at 5 ug/ml using Micrococcus luteus DNA as primer; format: protein-complex assay
[10] = biological target: T1, Bacterial DNA-directed RNA polymerase (Bacteria); experiment: Inhibition of Escherichia coli DNA-dependent RNA polymerase at 20 ug/ml using calf thymus DNA as primer; format: protein-complex assay
[11] = biological target: T1, Bacterial DNA-directed RNA polymerase (Bacteria); experiment: Inhibition of Escherichia coli DNA-dependent RNA polymerase at 2.5 ug/ml using Micrococcus luteus DNA as primer; format: protein-complex assay
P388 [12] = experiment: Antitumor activity against mouse P388 cells allografted in CDF1 mouse assessed as survival at 1.8 mg/kg, ip administered on day 1, 5 and 9; format: functional; settings: route intraperitoneal
Calf thymus DNA [13] = experiment: Binding affinity to calf thymus DNA at 1 x 10^-5 M after 30 mins by circular dichroism analysis; format: nucleic-acid assay; settings: Bos taurus
P388 [14] = experiment: Antitumor activity against mouse P388 cells allografted in CDF1 mouse assessed as survival at 1.2 mg/kg, ip administered on day 1, 5 and 9; format: functional; settings: route intraperitoneal
Calf thymus DNA [15] = experiment: Binding affinity to calf thymus DNA at 1 x 10^-5 M by thermal denaturation assay; format: nucleic-acid assay; settings: Bos taurus
L1210 [16] = experiment: Cytotoxicity against mouse L1210 cells at 5 ug/ml after 48 hrs; format: functional; settings: L1210, 48 h
Calf thymus DNA [17] = experiment: Binding affinity to calf thymus DNA at 1 x 10^-5 M by lectron spin resonance analysis; format: nucleic-acid assay; settings: Bos taurus
[18] = biological target: T1, Bacterial DNA-directed RNA polymerase (Bacteria); experiment: Inhibition of Escherichia coli DNA-dependent RNA polymerase at 5 ug/ml using calf thymus DNA as primer; format: protein-complex assay
L1210 [19] = experiment: Cytotoxicity against mouse L1210 cells at 1 ug/ml after 48 hrs; format: functional; settings: L1210, 48 h
P388 [20] = experiment: Antitumor activity against mouse P388 cells allografted in CDF1 mouse assessed as survival at 0.8 mg/kg, ip administered on day 1, 5 and 9; format: functional; settings: route intraperitoneal
[21] = biological target: T1, Bacterial DNA-directed RNA polymerase (Bacteria); experiment: Inhibition of Escherichia coli DNA-dependent RNA polymerase at 20 ug/ml using Micrococcus luteus DNA as primer; format: protein-complex assay
L1210 [22] = experiment: Cytotoxicity against mouse L1210 cells at 0.001 ug/ml after 48 hrs; format: functional; settings: L1210, 48 h
P388 [23] = experiment: Antitumor activity against mouse P388 cells allografted in CDF1 mouse assessed as survival at 4 mg/kg, ip administered on day 1, 5 and 9; format: functional; settings: route intraperitoneal
L1210 [24] = experiment: Cytotoxicity against mouse L1210 cells at 0.05 ug/ml after 48 hrs; format: functional; settings: L1210, 48 h
L1210 [25] = experiment: Cytotoxicity against mouse L1210 cells at 0.5 ug/ml after 48 hrs; format: functional; settings: L1210, 48 h
Mus musculus [26] = experiment: Toxicity in mouse P388 cells allografted CDF1 mouse assessed as mortality at 6 mg/kg, ip administered on day 1, 5 and 9; format: organism-based; set-up: dose 6 mg/kg, route intraperitoneal; settings: in vivo
[27] = biological target: Bacterial DNA-directed RNA polymerase (Bacteria, UniProt P0A7Z4+P0A800+P0A8T7+P0A8V2); experiment: Inhibition of Escherichia coli DNA-dependent RNA polymerase; format: protein-complex assay
Mus musculus [28] = experiment: Toxicity in mouse P388 cells allografted CDF1 mouse assessed as weight loss at 4 mg/kg, ip administered on day 1, 5 and 9; format: organism-based; set-up: dose 4 mg/kg, route intraperitoneal; settings: in vivo
Mus musculus [29] = experiment: Toxicity in mouse P388 cells allografted CDF1 mouse assessed as weight loss at 6 mg/kg, ip administered on day 1, 5 and 9; format: organism-based; set-up: dose 6 mg/kg, route intraperitoneal; settings: in vivo

T1 sequence (P0A7Z4 whole entry partner): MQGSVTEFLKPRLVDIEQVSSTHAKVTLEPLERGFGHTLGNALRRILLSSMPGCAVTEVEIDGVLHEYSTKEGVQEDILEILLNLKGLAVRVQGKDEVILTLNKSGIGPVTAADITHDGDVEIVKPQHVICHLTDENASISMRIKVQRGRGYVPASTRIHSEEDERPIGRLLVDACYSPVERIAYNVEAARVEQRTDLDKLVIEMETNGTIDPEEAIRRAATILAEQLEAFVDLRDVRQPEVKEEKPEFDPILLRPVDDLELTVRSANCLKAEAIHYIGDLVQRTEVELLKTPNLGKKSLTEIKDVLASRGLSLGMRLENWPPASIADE
T1 sequence (P0A800 2-91 partner limits assumed): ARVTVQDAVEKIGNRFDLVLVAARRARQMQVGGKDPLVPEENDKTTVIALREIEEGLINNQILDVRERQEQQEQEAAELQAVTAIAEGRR
T1 sequence (P0A8T7 whole entry partner): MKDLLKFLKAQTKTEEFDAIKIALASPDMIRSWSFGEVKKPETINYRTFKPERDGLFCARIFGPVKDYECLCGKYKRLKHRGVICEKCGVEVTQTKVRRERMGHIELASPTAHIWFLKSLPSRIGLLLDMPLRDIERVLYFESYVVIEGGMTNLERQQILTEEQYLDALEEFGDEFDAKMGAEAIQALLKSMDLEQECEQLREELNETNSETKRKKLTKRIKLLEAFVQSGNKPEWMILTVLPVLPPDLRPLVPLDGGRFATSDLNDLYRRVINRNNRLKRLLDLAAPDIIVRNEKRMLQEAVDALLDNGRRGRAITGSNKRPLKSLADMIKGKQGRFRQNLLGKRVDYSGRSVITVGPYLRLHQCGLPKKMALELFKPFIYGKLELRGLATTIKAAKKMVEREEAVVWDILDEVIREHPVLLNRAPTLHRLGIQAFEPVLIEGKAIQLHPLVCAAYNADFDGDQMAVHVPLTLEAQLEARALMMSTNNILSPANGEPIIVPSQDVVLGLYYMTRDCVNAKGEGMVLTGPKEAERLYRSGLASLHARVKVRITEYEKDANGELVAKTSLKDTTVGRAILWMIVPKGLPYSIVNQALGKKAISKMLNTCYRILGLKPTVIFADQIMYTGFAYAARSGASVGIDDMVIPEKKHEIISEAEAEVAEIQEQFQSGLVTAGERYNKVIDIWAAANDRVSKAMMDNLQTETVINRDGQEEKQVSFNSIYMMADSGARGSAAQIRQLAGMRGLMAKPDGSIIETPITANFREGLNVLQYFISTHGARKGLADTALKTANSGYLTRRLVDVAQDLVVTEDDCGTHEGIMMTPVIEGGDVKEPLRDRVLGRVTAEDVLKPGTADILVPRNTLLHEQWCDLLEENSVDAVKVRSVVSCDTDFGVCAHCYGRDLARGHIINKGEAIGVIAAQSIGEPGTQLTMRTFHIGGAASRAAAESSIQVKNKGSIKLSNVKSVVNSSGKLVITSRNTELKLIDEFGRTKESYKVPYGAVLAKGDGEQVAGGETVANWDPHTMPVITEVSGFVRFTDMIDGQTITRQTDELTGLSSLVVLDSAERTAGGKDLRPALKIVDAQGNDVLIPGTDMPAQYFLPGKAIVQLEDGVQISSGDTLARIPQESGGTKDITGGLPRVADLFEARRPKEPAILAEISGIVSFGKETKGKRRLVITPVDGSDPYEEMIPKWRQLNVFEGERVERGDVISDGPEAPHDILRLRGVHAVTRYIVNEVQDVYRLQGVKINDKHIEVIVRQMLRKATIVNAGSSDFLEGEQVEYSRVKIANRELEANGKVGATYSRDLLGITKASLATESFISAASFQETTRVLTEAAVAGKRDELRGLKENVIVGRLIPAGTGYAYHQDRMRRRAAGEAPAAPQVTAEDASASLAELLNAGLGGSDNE
T1 sequence (P0A8V2 whole entry): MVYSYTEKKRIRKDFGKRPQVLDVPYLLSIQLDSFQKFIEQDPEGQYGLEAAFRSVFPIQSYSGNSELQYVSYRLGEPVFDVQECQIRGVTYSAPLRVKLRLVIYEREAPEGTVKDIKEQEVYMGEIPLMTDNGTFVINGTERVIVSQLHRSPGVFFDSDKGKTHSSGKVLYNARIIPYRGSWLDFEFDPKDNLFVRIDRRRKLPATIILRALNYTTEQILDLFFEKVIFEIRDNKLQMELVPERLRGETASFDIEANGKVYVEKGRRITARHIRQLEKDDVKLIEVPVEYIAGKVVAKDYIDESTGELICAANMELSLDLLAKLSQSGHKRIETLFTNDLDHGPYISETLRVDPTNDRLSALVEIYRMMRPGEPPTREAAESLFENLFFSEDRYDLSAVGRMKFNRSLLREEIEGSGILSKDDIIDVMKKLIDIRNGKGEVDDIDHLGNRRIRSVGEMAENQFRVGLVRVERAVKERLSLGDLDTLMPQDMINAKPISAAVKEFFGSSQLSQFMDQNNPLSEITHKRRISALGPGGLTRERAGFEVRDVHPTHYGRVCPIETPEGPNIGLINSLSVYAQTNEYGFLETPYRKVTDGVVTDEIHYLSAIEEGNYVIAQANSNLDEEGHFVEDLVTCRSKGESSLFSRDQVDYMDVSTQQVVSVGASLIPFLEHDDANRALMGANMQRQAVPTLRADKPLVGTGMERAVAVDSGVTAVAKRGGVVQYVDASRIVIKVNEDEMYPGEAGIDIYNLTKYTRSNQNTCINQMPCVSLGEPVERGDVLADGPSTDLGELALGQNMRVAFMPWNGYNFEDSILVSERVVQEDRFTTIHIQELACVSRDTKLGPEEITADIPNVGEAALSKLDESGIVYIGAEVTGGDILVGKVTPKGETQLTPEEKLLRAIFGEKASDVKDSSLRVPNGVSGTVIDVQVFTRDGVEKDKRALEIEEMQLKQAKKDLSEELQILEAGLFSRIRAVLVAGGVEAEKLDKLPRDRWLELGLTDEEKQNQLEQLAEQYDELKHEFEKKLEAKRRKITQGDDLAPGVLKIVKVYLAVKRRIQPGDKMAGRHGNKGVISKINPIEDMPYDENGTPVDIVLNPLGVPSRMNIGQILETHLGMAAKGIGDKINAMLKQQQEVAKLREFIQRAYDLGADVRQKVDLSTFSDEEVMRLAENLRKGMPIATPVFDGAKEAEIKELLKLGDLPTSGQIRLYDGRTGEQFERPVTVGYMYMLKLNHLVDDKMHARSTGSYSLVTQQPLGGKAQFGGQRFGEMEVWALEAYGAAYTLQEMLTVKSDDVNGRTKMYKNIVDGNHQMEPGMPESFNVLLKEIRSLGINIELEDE

Cc1c2oc3c(C)ccc(C(=O)N[C@@H]4C(=O)N[C@H](C(C)C)C(=O)N5CCC[C@H]5C(=O)N(C)CC(=O)N(C)[C@@H](C(C)C)C(=O)O[C@@H]4C)c3nc-2c(C(=O)N[C@@H]2C(=O)N[C@H](C(C)C)C(=O)N3CCC[C@H]3C(=O)N(C)CC(=O)N(C)[C@@H](C(C)C)C(=O)O[C@@H]2C)c(NCCNC2CC(C)(C)N([O])C(C)(C)C2)c1=O
inhibition at 10 µg/mL (L1210 [1]): 99% | inhibition [2]: 43% | Survival (P388 [3]): 19 days | T/C (P388 [3]): 181% | inhibition at 0.01 µg/mL (L1210 [4]): 0% | Survival (P388 [5]): 8 days | T/C (P388 [5]): 76% | inhibition at 0.1 µg/mL (L1210 [6]): 41% | inhibition [7]: 78% | inhibition [8]: 81% | inhibition [9]: 56% | inhibition [10]: 88% | inhibition [11]: 42% | Survival (P388 [12]): 17 days | T/C (P388 [12]): 162% | Activity (Calf thymus DNA [13]): inactive | Survival (P388 [14]): 16 days | T/C (P388 [14]): 152% | ΔTm (Calf thymus DNA [15]): 2.8 °C | inhibition at 5 µg/mL (L1210 [16]): 98% | Activity (Calf thymus DNA [17]): inactive | inhibition [18]: 61% | inhibition at 1 µg/mL (L1210 [19]): 71% | Survival (P388 [20]): 19 days | T/C (P388 [20]): 181% | inhibition [21]: 91% | inhibition at 0.001 µg/mL (L1210 [22]): 0% | Survival (P388 [23]): 25 days | T/C (P388 [23]): 238% | inhibition at 0.05 µg/mL (L1210 [24]): 15% | inhibition at 0.5 µg/mL (L1210 [25]): 62%

Cc1c2oc3c(C)ccc(C(=O)N[C@@H]4C(=O)N[C@H](C(C)C)C(=O)N5CCC[C@H]5C(=O)N(C)CC(=O)N(C)[C@@H](C(C)C)C(=O)O[C@@H]4C)c3nc-2c(C(=O)N[C@@H]2C(=O)N[C@H](C(C)C)C(=O)N3CCC[C@H]3C(=O)N(C)CC(=O)N(C)[C@@H](C(C)C)C(=O)O[C@@H]2C)c(NCCNC2CC(C)(C)[N+]([O-])C(C)(C)C2)c1=O
Activity (Mus musculus [26]): Toxic | IC50 [27]: 2750 nM | Activity (Mus musculus [28]): Toxic

Cc1c2oc3c(C)ccc(C(=O)N[C@@H]4C(=O)N[C@H](C(C)C)C(=O)N5CCC[C@H]5C(=O)N(C)CC(=O)N(C)[C@@H](C(C)C)C(=O)O[C@@H]4C)c3nc-2c(C(=O)N[C@@H]2C(=O)N[C@H](C(C)C)C(=O)N3CCC[C@H]3C(=O)N(C)CC(=O)N(C)[C@@H](C(C)C)C(=O)O[C@@H]2C)c(NCCCNC2CC(C)(C)N([O])C(C)(C)C2)c1=O
inhibition at 10 µg/mL (L1210 [1]): 98% | inhibition [2]: 28% | Survival (P388 [3]): 18 days | T/C (P388 [3]): 181% | inhibition at 0.01 µg/mL (L1210 [4]): 0% | Survival (P388 [5]): 29 days | T/C (P388 [5]): 171% | inhibition at 0.1 µg/mL (L1210 [6]): 16% | inhibition [7]: 32% | inhibition [8]: 49% | inhibition [9]: 52% | inhibition [10]: 79% | inhibition [11]: 22% | Survival (P388 [12]): 19 days | T/C (P388 [12]): 143% | Activity (Calf thymus DNA [13]): Active | Survival (P388 [14]): 15 days | T/C (P388 [14]): 143% | ΔTm (Calf thymus DNA [15]): 3.5 °C | inhibition at 5 µg/mL (L1210 [16]): 69% | Activity (Calf thymus DNA [17]): Active | inhibition [18]: 78% | inhibition at 1 µg/mL (L1210 [19]): 45% | Survival (P388 [20]): 15 days | inhibition [21]: 62% | inhibition at 0.001 µg/mL (L1210 [22]): 0% | Survival (P388 [23]): 18 days | T/C (P388 [23]): 171% | inhibition at 0.05 µg/mL (L1210 [24]): 0% | inhibition at 0.5 µg/mL (L1210 [25]): 33%

Cc1c2oc3c(C)ccc(C(=O)N[C@@H]4C(=O)N[C@H](C(C)C)C(=O)N5CCC[C@H]5C(=O)N(C)CC(=O)N(C)[C@@H](C(C)C)C(=O)O[C@@H]4C)c3nc-2c(C(=O)N[C@@H]2C(=O)N[C@H](C(C)C)C(=O)N3CCC[C@H]3C(=O)N(C)CC(=O)N(C)[C@@H](C(C)C)C(=O)O[C@@H]2C)c(NCCCNC2CC(C)(C)[N+]([O-])C(C)(C)C2)c1=O
Activity (Mus musculus [29]): Toxic | IC50 [27]: 2730 nM

Cc1c2oc3c(C)ccc(C(=O)N[C@@H]4C(=O)N[C@H](C(C)C)C(=O)N5CCC[C@H]5C(=O)N(C)CC(=O)N(C)[C@@H](C(C)C)C(=O)O[C@@H]4C)c3nc-2c(C(=O)N[C@@H]2C(=O)N[C@H](C(C)C)C(=O)N3CCC[C@H]3C(=O)N(C)CC(=O)N(C)[C@@H](C(C)C)C(=O)O[C@@H]2C)c(NC2CC(C)(C)[N+]([O-])C(C)(C)C2)c1=O
Activity (Mus musculus [29]): Toxic

Cc1c2oc3c(C)ccc(C(=O)N[C@@H]4C(=O)N[C@H](C(C)C)C(=O)N5CCC[C@H]5C(=O)N(C)CC(=O)N(C)[C@@H](C(C)C)C(=O)O[C@@H]4C)c3nc-2c(C(=O)N[C@@H]2C(=O)N[C@H](C(C)C)C(=O)N3CCC[C@H]3C(=O)N(C)CC(=O)N(C)[C@@H](C(C)C)C(=O)O[C@@H]2C)c(NC2CC(C)(C)N([O])C(C)(C)C2)c1=O
inhibition at 10 µg/mL (L1210 [1]): 98% | inhibition [2]: 37% | Survival (P388 [3]): 19 days | T/C (P388 [3]): 181% | inhibition at 0.01 µg/mL (L1210 [4]): 0% | Survival (P388 [5]): 29 days | T/C (P388 [5]): 276% | inhibition at 0.1 µg/mL (L1210 [6]): 21% | inhibition [7]: 57% | inhibition [8]: 62% | inhibition [9]: 33% | inhibition [10]: 78% | inhibition [11]: 21% | Survival (P388 [12]): 20 days | T/C (P388 [12]): 190% | Activity (Calf thymus DNA [13]): inactive | Survival (P388 [14]): 17 days | T/C (P388 [14]): 162% | ΔTm (Calf thymus DNA [15]): 1.7 °C | inhibition at 5 µg/mL (L1210 [16]): 96% | Activity (Calf thymus DNA [17]): inactive | inhibition [18]: 41% | inhibition at 1 µg/mL (L1210 [19]): 57% | Survival (P388 [20]): 17 days | T/C (P388 [20]): 162% | inhibition [21]: 77% | inhibition at 0.001 µg/mL (L1210 [22]): 0% | Survival (P388 [23]): 26 days | T/C (P388 [23]): 248% | inhibition at 0.05 µg/mL (L1210 [24]): 10% | inhibition at 0.5 µg/mL (L1210 [25]): 39%
